Molecules are shown by their SMILES.

Series [1] is described as follows: Cell cycle analysis in human MCF7 cells assessed as accumulation at SubG1 phase at 1 uM measured after 24 hrs by propidium iodide staining-based flow cytometry (reference value: 2.6%). The format is functional. Background: A flow cytometer gives signals particle by particle.
Series [2] can be described thus: Cell cycle arrest in human MCF7 cells assessed as M1 quadrant cells at 18 uM pretreated with autophagy inhibitor wortmannin for 1 hr followed by compound addition measured after 48 hrs by propidium iodide staining-based flow cytometry assay (reference value: 98.1%). The class given is functional. Details: scale not given: the % may be the effect or the level left.

Series [3] can be described thus: Cell cycle analysis in human MCF7 cells assessed as accumulation at SubG1 phase at 10 uM measured after 24 hrs by propidium iodide staining-based flow cytometry (reference value: 2.6%). The format is functional.
The nature of series [4]: Cell cycle analysis in human MCF7 cells assessed as accumulation at G2/M phase at 18 uM measured after 24 hrs by propidium iodide staining-based flow cytometry (reference value: 8.9%). The format is functional.
Series [5] is described as follows: Cell cycle analysis in human MCF7 cells assessed as accumulation at S phase at 1 uM measured after 24 hrs by propidium iodide staining-based flow cytometry (reference value: 15.3%). The class given is functional.
Series [6] is described as follows: Cell cycle analysis in human MCF7 cells assessed as accumulation at SubG1 phase at 5 uM measured after 24 hrs by propidium iodide staining-based flow cytometry (reference value: 2.6%). The class given is functional.
Series [7] is described as follows: Cell cycle analysis in human MCF7 cells assessed as accumulation at G2/M phase at 25 uM measured after 24 hrs by propidium iodide staining-based flow cytometry (reference value: 8.9%). The class given is functional.
The nature of series [8]: Cell cycle analysis in human MCF7 cells assessed as accumulation at G2/M phase at 10 uM measured after 24 hrs by propidium iodide staining-based flow cytometry (reference value: 8.9%). The class given is functional.
Series [9] is described as follows: Cell cycle arrest in human MCF7 cells assessed as sub-diploid cells at 18 uM measured after 48 hrs by propidium iodide staining-based flow cytometry (reference value: 1.9%). The class given is functional.
Series [10] in a line: Cell cycle arrest in human MCF7 cells assessed as M1 quadrant cells at 18 uM pretreated with pan-caspase inhibitor Z-VAD-FMK for 1 hr followed by compound addition measured after 48 hrs by propidium iodide staining-based flow cytometry assay (reference value: 98.1%). The class given is functional. Details: scale not given: the % may be the effect or the level left.
Series [11] is described as follows: Cell cycle analysis in human MCF7 cells assessed as accumulation at S phase at 18 uM measured after 24 hrs by propidium iodide staining-based flow cytometry (reference value: 15.3%). The class given is functional.
A short description of series [12]: Cell cycle analysis in human MCF7 cells assessed as accumulation at SubG1 phase at 18 uM measured after 24 hrs by propidium iodide staining-based flow cytometry (reference value: 2.6%). The class given is functional.
The nature of series [13]: Cell cycle arrest in human MCF7 cells assessed as sub-diploid cells at 18 uM pretreated with autophagy inhibitor wortmannin for 1 hr followed by compound addition measured after 48 hrs by propidium iodide staining-based flow cytometry assay (reference value: 1.9%). The format is functional. Details: scale not given: the % may be the effect or the level left.
Series [14] can be described thus: Cell cycle analysis in human MCF7 cells assessed as accumulation at G0/G1 phase at 5 uM measured after 24 hrs by propidium iodide staining-based flow cytometry (reference value: 73.6%). The format is functional.
Series [15] in a line: Cell cycle analysis in human MCF7 cells assessed as accumulation at G0/G1 phase at 18 uM measured after 24 hrs by propidium iodide staining-based flow cytometry (reference value: 73.6%). The class given is functional.
Series [16] can be described thus: Cell cycle analysis in human MCF7 cells assessed as accumulation at S phase at 5 uM measured after 24 hrs by propidium iodide staining-based flow cytometry (reference value: 15.3%). The class given is functional.
A further series relates to MCF7. Briefly: Selectivity index, ratio of GI50 for human 184B5 cells to GI50 for human MCF7 cells. The format is functional.
Series [17] in a line: Cell cycle analysis in human MCF7 cells assessed as accumulation at G0/G1 phase at 10 uM measured after 24 hrs by propidium iodide staining-based flow cytometry (reference value: 73.6%). The class given is functional.
Series [18] can be described thus: Cell cycle analysis in human MCF7 cells assessed as accumulation at SubG1 phase at 25 uM measured after 24 hrs by propidium iodide staining-based flow cytometry (reference value: 2.6%). The class given is functional.
Series [19] can be described thus: Cell cycle arrest in human MCF7 cells assessed as sub-diploid cells at 18 uM pretreated with pan-caspase inhibitor Z-VAD-FMK for 1 hr followed by compound addition measured after 48 hrs by propidium iodide staining-based flow cytometry assay (reference value: 1.9%). The format is functional. Details: scale not given: the % may be the effect or the level left.
Series [20] can be described thus: Cytotoxicity against human 184B5 cells assessed as reduction in cell viability measured after 72 hrs by MTT assay. The class given is toxicity, cell-based. (In general: Tetrazolium assays rely on reduction of a dye to a coloured formazan, in cell work by metabolically active cells.)
Series [21] in a line: Cell cycle analysis in human MCF7 cells assessed as accumulation at G0/G1 phase at 25 uM measured after 24 hrs by propidium iodide staining-based flow cytometry (reference value: 73.6%). The class given is functional.
Series [22] can be described thus: Cell cycle analysis in human MCF7 cells assessed as accumulation at G0/G1 phase at 1 uM measured after 24 hrs by propidium iodide staining-based flow cytometry (reference value: 73.6%). The format is functional.
The nature of series [23]: Cell cycle arrest in human MCF7 cells assessed as increase in subdiploid cells at 18 uM after 48 hrs by TUNEL based flow cytometry assay. The format is functional.
Series [24] can be described thus: Cytotoxicity against human PC3 cells assessed as reduction in cell viability measured after 72 hrs by MTT assay. The format is functional. To be noted: PC-3, 72 h.
Series [25] is described as follows: Cell cycle analysis in human MCF7 cells assessed as accumulation at S phase at 10 uM measured after 24 hrs by propidium iodide staining-based flow cytometry (reference value: 15.3%). The class given is functional.
Series [26] can be described thus: Cell cycle analysis in human MCF7 cells assessed as accumulation at S phase at 25 uM measured after 24 hrs by propidium iodide staining-based flow cytometry (reference value: 15.3%). The class given is functional.
Series [27] can be described thus: Cytotoxicity against human MCF7 cells assessed as reduction in cell viability measured after 72 hrs by MTT assay. The format is functional. The settings on record: MCF7, 72 h.
A short description of series [28]: Cell cycle arrest in human MCF7 cells assessed as M1 quadrant cells at 18 uM measured after 48 hrs by propidium iodide staining-based flow cytometry (reference value: 98.1%). The format is functional.
Series [29] can be described thus: Cell cycle analysis in human MCF7 cells assessed as accumulation at G2/M phase at 1 uM measured after 24 hrs by propidium iodide staining-based flow cytometry (reference value: 8.9%). The class given is functional.
Series [30] in a line: Cell cycle analysis in human MCF7 cells assessed as accumulation at G2/M phase at 5 uM measured after 24 hrs by propidium iodide staining-based flow cytometry (reference value: 8.9%). The class given is functional.
Series [31] is described as follows: Cell cycle arrest in human MCF7 cells assessed as sub-diploid cells at 100 nM measured after 48 hrs by propidium iodide staining-based flow cytometry (reference value: 1.9%). The class given is functional.
A short description of series [32]: Cell cycle arrest in human MCF7 cells assessed as M1 quadrant cells at 100 nM measured after 48 hrs by propidium iodide staining-based flow cytometry (reference value: 98.1%). The class given is functional.

A word on the GI50: it is the concentration that inhibits growth by half. One may read the LC50 as the concentration that kills 50% of the test population. Usually TGI stands for the concentration giving total growth inhibition. On to `Cc1noc(C)c1CSC#N`, for which the Activity amounted to 2% in [1]; 49.6% in [2]; 3.4% in series [3]; 66.1% in series [4]; 22.2% in series [5]; 3.3% in [6]. The Activity in [7] came out at 25.8%; in series [8], 51.8%; in series [9] it was 53.7%; in series [10], 80.9%; in [11] it was 9.9%; in series [12] it was 5.7%. For the same compound, the Activity in [13] was 50.4%; in series [14], 68.1%; in [15], 18.4%; in series [16], 14.9%; in series [17], 33.8%; in series [18], 4.4%. Besides, the Activity in [19] was 19.1%; in [21], 54.6%; in series [22], 67.6%; in [23] it was above 60%; in series [25], 11.6%; in [26], 16.3%. Also, the results for the Activity in series [28], in series [29] and in series [30] were 46%, 8.9% and 13.2%, respectively. Besides, the RatioGI50 with MCF7 is recorded as 9.6. In addition, the 50% growth inhibitory concentration (GI50) at 72 h in series [20] (184B5 cells) was 46.2 µM. The LC50 in series [20] (184b5, 72 h) was determined as 99.5 µM; in [27], 84.9 µM. Moreover, the TGI in series [20] (184b5, 72 h) turned out to be 74.2 µM; in [24], 13.8 µM; in series [27], 44.6 µM. Also, the results for the GI50 in series [24] and in [27] were 8 µM and 4.8 µM, respectively. The LC50 (concentration lethal to 50% of cells) in [24] stood at 21.9 µM.
For the compound `COC[C@H]1OC(=O)c2coc3c2[C@@]1(C)C1=C(C3=O)[C@@H]2CCC(=O)[C@@]2(C)C[C@H]1OC(C)=O`, the figures for the Activity in series [31] and in series [32] were 6.2% and 93.8%, respectively.

Source of the values: ChEMBL document CHEMBL3871268, “Chalcogen containing heterocyclic scaffolds: New hybrids with antitumoral activity” (Eur J Med Chem, 2016).
